Results published in the supplement of paper PMC10307832.

Tests used:
Assay in all cases: relative viability (nuclei count vs DMSO), 5 days (fraction); higher = more cells survive
[1] = compound: C1=CC2=C(C=C(C(=C2N=C1)O)N=NC3=CC4=C(C=C3)C=C(C=C4)S(=O)(=O)O)S(=O)(=O)O + O=C(c1cc(Cc2n[nH]c(=O)c3ccccc23)ccc1F)N1CCN(C(=O)C2CC2)CC1 [Olaparib] (partner 8 µM)
Procedure, shortened: (§1)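 Relative viability was taken as the ratio of nuclei in treated wells to nuclei in vehicle wells. Lung cancer cell lines in 1536-well plates received compounds by pin tool one day after seeding, either one drug alone or a fixed anchor-drug dose plus five library-drug doses (not always all listed) in √10 steps. Nuclei were counted on 4× images after 5 days of treatment, and values are medians of duplicate plates.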

[2] = compound: C1=CC2=C(C=C(C(=C2N=C1)O)N=NC3=CC4=C(C=C3)C=C(C=C4)S(=O)(=O)O)S(=O)(=O)O + CS(=O)(=O)CCNCc1ccc(-c2ccc3ncnc(Nc4ccc(OCc5cccc(F)c5)c(Cl)c4)c3c2)o1 [Lapatinib] (partner 2 µM)
Procedure, shortened: as §1

AT-7519 + Decitabine = compound: O=C(NC1CCNCC1)c1n[nH]cc1NC(=O)c1c(Cl)cccc1Cl [AT-7519] + Nc1ncn([C@H]2C[C@H](O)[C@@H](CO)O2)c(=O)n1 [Decitabine] (partner 2 µM)
Procedure, shortened: as §1

AT-7519 + Tozasertib = compound: O=C(NC1CCNCC1)c1n[nH]cc1NC(=O)c1c(Cl)cccc1Cl [AT-7519] + Cc1cc(Nc2cc(N3CCN(C)CC3)nc(Sc3ccc(NC(=O)C4CC4)cc3)n2)n[nH]1 [Tozasertib] (partner 0.1 µM)
Procedure, shortened: as §1

Cell Line	relative viability ([1]; first compound 0.08 µM)	relative viability ([1]; first compound 0.253 µM)	relative viability ([1]; first compound 0.8 µM)	relative viability ([1]; first compound 2.53 µM)	relative viability ([1]; first compound 8 µM)	relative viability ([2]; first compound 0.08 µM)	relative viability ([2]; first compound 0.253 µM)	relative viability ([2]; first compound 0.8 µM)	relative viability ([2]; first compound 2.53 µM)	relative viability ([2]; first compound 8 µM)	relative viability (AT-7519 + Decitabine; first compound 0.01 µM)	relative viability (AT-7519 + Decitabine; first compound 0.03162 µM)	relative viability (AT-7519 + Decitabine; first compound 0.3162 µM)	relative viability (AT-7519 + Decitabine; first compound 1 µM)	relative viability (AT-7519 + Tozasertib; first compound 0.01 µM)	relative viability (AT-7519 + Tozasertib; first compound 0.03162 µM)	relative viability (AT-7519 + Tozasertib; first compound 0.3162 µM)	relative viability (AT-7519 + Tozasertib; first compound 1 µM)
EBC-1	0.808	0.634	0.694	0.758	0.732	0.202	0.242	0.27	0.2	0.238	–	–	–	–	–	–	–	–
EKVX	1.02	0.77	0.904	0.822	0.955	0.215	0.215	0.172	0.208	0.219	0.331	0.303	0.57	0.463	0.454	0.389	0.403	0.531
EMC-BAC-2	0.504	0.485	0.493	0.489	0.465	0.826	0.881	0.877	0.927	0.74	0.93	0.924	0.935	0.692	0.339	0.286	0.302	0.308
EPLC-272H	0.855	0.683	0.722	1	0.808	1	0.947	0.895	1	0.935	0.367	0.322	0.387	0.298	0.376	0.26	0.39	0.243
H3255	0.6	0.571	0.551	0.638	0.587	0.283	0.236	0.255	0.246	0.237	0.721	0.58	0.573	0.57	0.998	0.506	0.622	0.582
HARA	0.959	0.797	0.697	0.741	0.764	0.836	0.611	0.681	0.869	0.778	0.526	0.531	0.819	0.441	0.129	0.0981	0.147	0.155
HCC-15	0.879	0.682	0.714	0.698	0.727	0.963	0.841	0.843	0.832	0.888	0.59	0.567	0.498	0.441	0.378	0.524	0.434	0.199
HCC-44	1.02	0.945	0.956	0.982	0.933	1.08	0.975	0.96	1.05	1.09	0.928	0.95	0.978	1.04	1.14	0.809	0.303	0.231
HCC-78	0.971	0.908	0.733	0.801	0.811	0.763	0.625	0.702	0.922	0.192	0.688	0.704	0.696	0.626	0.631	0.451	0.49	0.326
